ChEMBL document CHEMBL1201862, “PubChem BioAssay data set” (2004)
Active and inactive are the calls of the source.

Experiments:
cells [1] = type: functional, cell-based
[2] = biological target: T1, Trace amine-associated receptor 1 (Homo sapiens, UniProt Q96RJ0); experiment: Counterscreen for agonists of the human trace amine associated receptor 1 (hTAAR1): Fluorescence-based cell-based high throughput dose response assay to identify hTAAR1 agonist that also desensitize TAAR1 receptor response.; type: functional
T1 sequence (Q96RJ0 whole entry): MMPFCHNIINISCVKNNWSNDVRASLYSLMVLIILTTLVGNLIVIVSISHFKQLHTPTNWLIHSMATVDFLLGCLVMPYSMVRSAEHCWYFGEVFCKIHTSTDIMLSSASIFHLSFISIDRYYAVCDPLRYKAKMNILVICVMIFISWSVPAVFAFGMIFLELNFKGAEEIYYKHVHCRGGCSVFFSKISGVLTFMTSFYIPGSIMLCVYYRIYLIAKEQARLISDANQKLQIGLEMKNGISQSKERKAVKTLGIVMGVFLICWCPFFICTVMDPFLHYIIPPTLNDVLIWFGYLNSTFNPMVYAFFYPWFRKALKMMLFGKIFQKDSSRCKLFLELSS

[3] = biological target: T1, Trace amine-associated receptor 1; experiment: Fluorescence-based cell-based high throughput dose response assay to identify agonists of the human trace amine associated receptor 1 (TAAR1).; type: functional
cells [4] = type: functional, cell-based; remark: listed apart in the source
Beta-galactosidase [5] = biological target: T2, Beta-galactosidase (Escherichia coli, UniProt Q8VNN2); experiment: Dose response counterscreen for EBI2 assay utilizing the enzyme, b-galactosidase.; type: functional
[6] = biological target: RNA-editing ligase 1, mitochondrial (Trypanosoma brucei brucei, UniProt P86926); experiment: inhibition of trypanosome RNA editing ligase – biochemical, fluorescence, Trypanosoma brucei, dose response (AID 1117295); type: functional
Kallikrein-7 = Kallikrein-7 (Homo sapiens, UniProt P49862); experiment: Fluorescence Intensity-based biochemical primary high throughput dose response assay to identify activators of kallikrein-7 (K7) zymogen.
Albumin = Albumin (Bos taurus, UniProt P02769); experiment: Counterscreen for inhibitors of T-cell receptor (TCR)-CD3 interaction: Fluorescence-based biochemical high throughput dose response assay to identify inhibitors of T-cell receptor (TCR)-CD3 interaction using a TAMRA-labeled BSA probe.; type: functional
[7] = rescue of ΔF508 CFTR function, airway epithelium – human bronchial epithelial cells, plate reader, cherry-pick, two tests, dose response (AID 743267); type: functional, cell-based
[8] = Luminescence Cell-Based Dose Retest to Confirm Inhibitors of Cancer Stem Cells. [Related pubchem assays (depositor defined):AID2717, AID2721]; type: functional; conditions: Homo sapiens
Beta-galactosidase [9] = biological target: T2, Beta-galactosidase; experiment: PubChem AID 485352; type: functional
[10] = biological target: T3, Type-1 angiotensin II receptor (Homo sapiens, UniProt P30556); experiment: antagonism of angiotensin II type 1 receptor – cell-based, uHTS hits, selectivity assay for APJ receptor antagonist project, dose response (AID 463214); type: functional;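 note: antagonist potency against angiotensin II stimulated AT1 response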
T3 sequence (P30556 whole entry): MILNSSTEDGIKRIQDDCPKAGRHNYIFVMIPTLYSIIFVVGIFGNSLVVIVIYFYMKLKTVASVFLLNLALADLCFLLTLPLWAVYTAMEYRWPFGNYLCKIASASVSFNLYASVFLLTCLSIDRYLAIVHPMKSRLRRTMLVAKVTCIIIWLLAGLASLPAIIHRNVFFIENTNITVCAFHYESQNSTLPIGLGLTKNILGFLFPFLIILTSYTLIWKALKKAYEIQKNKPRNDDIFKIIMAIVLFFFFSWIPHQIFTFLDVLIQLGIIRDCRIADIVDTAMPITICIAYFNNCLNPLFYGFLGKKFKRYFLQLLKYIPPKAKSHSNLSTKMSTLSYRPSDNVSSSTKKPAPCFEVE

[11] = biological target: T4, Microphthalmia-associated transcription factor (Homo sapiens, UniProt O75030); experiment: reducers of TRPM1 reporter luminescence, concentration series – cell-based, SK-MEL-5, cherry-picked, set 3, MITF inhibitor project, dose response (AID 493073); type: functional;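 note: SK-MEL-5 melanoma cells with luciferase driven by the MITF target TRPM1 promoter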
T4 sequence (O75030 whole entry): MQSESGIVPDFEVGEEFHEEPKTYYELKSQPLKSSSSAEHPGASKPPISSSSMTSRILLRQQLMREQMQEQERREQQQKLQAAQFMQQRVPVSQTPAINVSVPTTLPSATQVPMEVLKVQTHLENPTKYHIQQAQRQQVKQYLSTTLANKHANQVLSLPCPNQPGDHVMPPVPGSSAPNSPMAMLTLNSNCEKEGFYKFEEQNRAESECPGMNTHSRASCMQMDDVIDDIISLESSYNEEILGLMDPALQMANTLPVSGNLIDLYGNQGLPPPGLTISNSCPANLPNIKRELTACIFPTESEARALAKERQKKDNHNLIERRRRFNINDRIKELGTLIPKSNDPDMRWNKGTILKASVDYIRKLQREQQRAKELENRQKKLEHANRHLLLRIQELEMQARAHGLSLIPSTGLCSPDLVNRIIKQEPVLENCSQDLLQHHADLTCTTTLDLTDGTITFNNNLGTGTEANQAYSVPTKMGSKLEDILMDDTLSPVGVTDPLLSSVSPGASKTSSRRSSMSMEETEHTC

[12] = Counterscreen for activators of the function of SWI/SNF related, matrix associated, actin dependent regulator of chromatin, subfamily a, member 2 (SMARCA2, BRM): Luminescence-based cell-based high throughput dose response assay to identify non-selective compounds using the VP16 reporter assay.; type: functional
[13] = biological target: SWI/SNF-related matrix-associated actin-dependent regulator of chromatin subfamily A member 2 (Homo sapiens, UniProt P51531); experiment: Luminescence-based cell-based high throughput dose response assay to identify activators of the function of SWI/SNF related, matrix associated, actin dependent regulator of chromatin, subfamily a, member 2 (SMARCA2, BRM).; type: functional
cells [14] = experiment: cells
[15] = biological target: Oxysterols receptor LXR-beta (Homo sapiens, UniProt P55055); type: functional, cell-based;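 note: Cell-based luminescence dose-response assay of agonist activity at LXR, run as a confirmatory counterscreen to a daf-12 agonist screen; HEK293 cells with Gal4-LXR fusion and GAL4-driven luciferase reporter; agonist potency from rising luciferase signal of a Gal4-LXR reporter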
[16] = OVCAR8 cell viability loss – plate reader, dry powder samples, PAX8 project, dose response (AID 743197); type: functional, cell-based; conditions: OVCAR-8
[17] = IGROV1 cell killing – plate reader, dry powder samples, PAX8 inhibitor project, dose response (AID 743043); type: functional, cell-based; conditions: IGROV-1
[18] = OVCAR-3 cell viability loss – plate reader, dry powder samples, PAX8 inhibitor project, dose response (AID 743044); type: functional, cell-based
Paired box protein Pax-8 = Paired box protein Pax-8 (Homo sapiens, UniProt Q06710); experiment: PAX8 transcriptional activity inhibition in RMG-I – RMG-I cells, luciferase, cherry-pick, dose response (AID 687027); type: functional, cell-based;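 note: luciferase reporter driven by Pax8 target thyroperoxidase promoter measured by SteadyGlo luminescence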
[19] = toxicity toward immortalized ovarian surface epithelium – cell-based, plate reader, dry powder samples, cytotoxicity control for PAX8 inhibitor project, dose response (AID 743045); type: functional
HEK293 = experiment: cells; type: functional, cell-based; conditions: Homo sapiens
[20] = biological target: T5, Nuclear receptor subfamily 0 group B member 1 (Homo sapiens, UniProt P51843); experiment: Luminescence-based cell-based high throughput dose response assay for inhibitors of the orphan nuclear receptor subfamily 0, group B, member 1 (DAX1; NR0B1). [Related pubchem assays (depositor defined):AID504766, AID504790]; type: functional
T5 sequence (P51843 whole entry): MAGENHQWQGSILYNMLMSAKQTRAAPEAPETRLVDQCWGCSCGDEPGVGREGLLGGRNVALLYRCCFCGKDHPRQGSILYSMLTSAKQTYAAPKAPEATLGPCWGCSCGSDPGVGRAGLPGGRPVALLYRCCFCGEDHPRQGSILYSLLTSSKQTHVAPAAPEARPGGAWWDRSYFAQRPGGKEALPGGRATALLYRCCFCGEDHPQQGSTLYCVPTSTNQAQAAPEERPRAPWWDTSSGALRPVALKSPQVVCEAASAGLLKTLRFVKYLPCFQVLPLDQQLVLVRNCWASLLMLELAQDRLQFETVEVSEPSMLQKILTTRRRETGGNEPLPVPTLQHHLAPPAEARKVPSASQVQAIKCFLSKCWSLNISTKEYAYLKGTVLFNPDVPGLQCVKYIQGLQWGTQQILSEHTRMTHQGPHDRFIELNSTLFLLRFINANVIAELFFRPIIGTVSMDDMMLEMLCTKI

[21] = biological target: FAD-linked sulfhydryl oxidase ALR (Homo sapiens, UniProt P55789); experiment: ALR-catalysed DTT oxidation blockers – biochemical, H2O2 detection, luminescence, cherry-pick, dose response (AID 493248)
[22] = cytotoxicity in MITF-independent A375 cells – cell-based, CellTiter-Glo luminescence, dry powder, set 4, counter-screen for MITF inhibitor project, dose response (AID 624364); type: functional; conditions: A-375;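 note: A375 melanoma cells are MITF independent so this is a counter screen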
[23] = viability loss in MITF-independent A375 cells – cell-based, CellTiter-Glo luminescence, dry powder, set 2, counter-screen for MITF inhibitor project, dose response (AID 624489); type: functional; conditions: A-375;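 note: actives are compounds lowering A375 viability meaning general cytotoxicity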

T2 sequence (Q8VNN2 whole entry): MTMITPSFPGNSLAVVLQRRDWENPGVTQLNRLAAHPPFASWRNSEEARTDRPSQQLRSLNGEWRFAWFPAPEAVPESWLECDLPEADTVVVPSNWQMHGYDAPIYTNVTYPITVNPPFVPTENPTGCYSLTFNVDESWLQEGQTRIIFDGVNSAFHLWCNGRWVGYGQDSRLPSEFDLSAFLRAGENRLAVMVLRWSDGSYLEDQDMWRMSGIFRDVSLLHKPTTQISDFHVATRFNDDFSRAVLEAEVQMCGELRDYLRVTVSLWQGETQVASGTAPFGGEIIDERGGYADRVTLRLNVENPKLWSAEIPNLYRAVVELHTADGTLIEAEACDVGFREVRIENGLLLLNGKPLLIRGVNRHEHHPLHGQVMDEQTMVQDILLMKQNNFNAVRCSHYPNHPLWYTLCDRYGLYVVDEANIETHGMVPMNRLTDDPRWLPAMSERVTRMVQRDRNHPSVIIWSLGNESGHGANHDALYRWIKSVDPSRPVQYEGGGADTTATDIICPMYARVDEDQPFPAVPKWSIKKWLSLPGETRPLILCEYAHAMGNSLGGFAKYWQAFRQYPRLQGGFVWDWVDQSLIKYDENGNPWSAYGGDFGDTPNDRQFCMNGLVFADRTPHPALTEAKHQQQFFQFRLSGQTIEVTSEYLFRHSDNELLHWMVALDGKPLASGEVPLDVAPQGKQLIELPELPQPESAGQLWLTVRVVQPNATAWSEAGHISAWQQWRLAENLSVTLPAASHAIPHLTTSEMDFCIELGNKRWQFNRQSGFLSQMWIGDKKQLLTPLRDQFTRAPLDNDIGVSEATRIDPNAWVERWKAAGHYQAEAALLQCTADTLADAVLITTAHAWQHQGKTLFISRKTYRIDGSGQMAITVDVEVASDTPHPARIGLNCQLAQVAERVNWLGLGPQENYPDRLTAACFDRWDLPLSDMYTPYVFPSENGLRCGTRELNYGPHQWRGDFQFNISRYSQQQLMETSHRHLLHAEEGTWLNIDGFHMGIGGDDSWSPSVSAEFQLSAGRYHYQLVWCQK
Sequence of Kallikrein-7 (P49862 whole entry): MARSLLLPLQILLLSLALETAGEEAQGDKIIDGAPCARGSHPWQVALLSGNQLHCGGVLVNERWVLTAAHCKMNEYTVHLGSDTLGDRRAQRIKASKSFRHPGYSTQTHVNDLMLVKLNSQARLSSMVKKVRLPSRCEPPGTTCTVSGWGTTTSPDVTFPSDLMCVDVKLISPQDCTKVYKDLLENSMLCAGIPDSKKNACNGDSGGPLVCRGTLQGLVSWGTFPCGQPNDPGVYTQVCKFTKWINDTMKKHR
Sequence of Oxysterols receptor LXR-beta (P55055 whole entry, the tested form may be a part): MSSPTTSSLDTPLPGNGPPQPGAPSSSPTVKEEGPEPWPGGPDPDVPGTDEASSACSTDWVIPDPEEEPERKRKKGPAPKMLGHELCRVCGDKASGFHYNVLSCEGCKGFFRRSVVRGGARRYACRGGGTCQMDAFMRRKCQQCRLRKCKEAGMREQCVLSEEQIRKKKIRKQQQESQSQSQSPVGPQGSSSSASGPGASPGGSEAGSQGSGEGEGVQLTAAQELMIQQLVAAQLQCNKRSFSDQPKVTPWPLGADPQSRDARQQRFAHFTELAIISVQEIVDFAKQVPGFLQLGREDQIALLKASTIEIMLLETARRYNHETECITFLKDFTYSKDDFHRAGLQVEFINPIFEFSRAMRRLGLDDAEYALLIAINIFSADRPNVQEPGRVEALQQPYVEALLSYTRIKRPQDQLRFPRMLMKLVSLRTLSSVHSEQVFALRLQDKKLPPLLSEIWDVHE
Sequence of Paired box protein Pax-8 (Q06710 whole entry): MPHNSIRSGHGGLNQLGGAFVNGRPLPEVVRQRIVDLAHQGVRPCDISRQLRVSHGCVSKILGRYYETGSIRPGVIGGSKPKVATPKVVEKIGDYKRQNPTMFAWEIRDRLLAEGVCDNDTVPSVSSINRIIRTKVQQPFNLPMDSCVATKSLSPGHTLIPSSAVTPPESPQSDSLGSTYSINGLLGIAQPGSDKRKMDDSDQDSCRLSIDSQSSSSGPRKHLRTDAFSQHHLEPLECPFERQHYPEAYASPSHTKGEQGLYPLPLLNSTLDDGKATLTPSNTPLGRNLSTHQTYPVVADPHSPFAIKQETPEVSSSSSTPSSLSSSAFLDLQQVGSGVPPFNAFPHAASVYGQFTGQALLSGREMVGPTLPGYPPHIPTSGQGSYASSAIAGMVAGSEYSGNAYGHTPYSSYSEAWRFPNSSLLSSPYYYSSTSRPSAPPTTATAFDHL
Sequence of Albumin (P02769 whole entry): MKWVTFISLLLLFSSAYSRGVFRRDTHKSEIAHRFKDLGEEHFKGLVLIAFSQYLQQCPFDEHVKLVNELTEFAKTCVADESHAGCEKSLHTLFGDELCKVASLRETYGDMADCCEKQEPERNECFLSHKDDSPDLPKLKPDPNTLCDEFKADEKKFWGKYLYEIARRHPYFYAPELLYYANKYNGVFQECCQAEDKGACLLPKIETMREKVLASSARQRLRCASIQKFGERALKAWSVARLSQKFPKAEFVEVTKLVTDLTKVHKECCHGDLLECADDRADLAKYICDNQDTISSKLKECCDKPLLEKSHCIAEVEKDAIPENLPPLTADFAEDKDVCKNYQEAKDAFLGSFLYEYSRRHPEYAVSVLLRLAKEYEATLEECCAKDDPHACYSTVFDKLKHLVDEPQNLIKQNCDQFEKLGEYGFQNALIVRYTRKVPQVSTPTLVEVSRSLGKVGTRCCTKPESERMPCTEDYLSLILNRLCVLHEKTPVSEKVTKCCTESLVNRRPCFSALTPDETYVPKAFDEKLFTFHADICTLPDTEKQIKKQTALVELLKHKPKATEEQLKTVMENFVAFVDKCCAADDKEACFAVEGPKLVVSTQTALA
Sequence of FAD-linked sulfhydryl oxidase ALR (P55789 whole entry): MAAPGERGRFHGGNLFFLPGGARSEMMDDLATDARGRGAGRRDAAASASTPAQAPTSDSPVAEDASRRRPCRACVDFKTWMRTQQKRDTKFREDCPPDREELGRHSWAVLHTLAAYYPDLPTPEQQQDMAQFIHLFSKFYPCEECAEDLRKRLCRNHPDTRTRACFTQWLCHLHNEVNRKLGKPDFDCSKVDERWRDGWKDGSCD
Sequence of RNA-editing ligase 1, mitochondrial (P86926 whole entry): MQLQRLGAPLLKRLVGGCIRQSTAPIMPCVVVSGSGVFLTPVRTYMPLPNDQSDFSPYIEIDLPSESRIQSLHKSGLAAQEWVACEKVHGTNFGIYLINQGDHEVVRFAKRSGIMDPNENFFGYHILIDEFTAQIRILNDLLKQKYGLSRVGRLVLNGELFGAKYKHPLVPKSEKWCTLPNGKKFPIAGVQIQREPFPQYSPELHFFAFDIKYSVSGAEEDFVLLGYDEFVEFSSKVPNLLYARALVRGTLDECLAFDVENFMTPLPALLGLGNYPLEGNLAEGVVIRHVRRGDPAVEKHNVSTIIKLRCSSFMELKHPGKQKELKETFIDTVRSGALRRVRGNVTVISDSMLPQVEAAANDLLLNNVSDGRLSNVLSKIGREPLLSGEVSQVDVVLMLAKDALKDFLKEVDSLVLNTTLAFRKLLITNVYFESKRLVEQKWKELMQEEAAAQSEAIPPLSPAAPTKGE

In the case of `OC(COC(c1ccc(F)cc1)c1ccc(F)cc1)CN1CCCC(C(F)(F)F)C1` (stereo unspecified), the EC50 (cells [1]) is reported as > 29.9 µM (inactive), the IC50 [2] is reported as 8.46 µM (active) and the EC50 [3] is reported as 2.52 µM (active). The IC50 (cells [4]) was > 29.9 µM (inactive).
With `CCOC(=O)C1CCN(C(=O)c2cc3c(ccc4ccccc43)o2)CC1` the IC50 (Beta-galactosidase [5]) was > 80 µM (inactive).
For `NS(=O)(=O)c1ccc(CCNC(=O)C2CCC(CNS(=O)(=O)c3ccc(Br)s3)CC2)cc1` (stereo unspecified), the EC50 (cells [1]) was > 29.9 µM (inactive), the IC50 [2] was 1.16 µM (active) and the EC50 [3] was > 29.9 µM (inactive). For the same molecule, the IC50 (cells [4]) was > 29.9 µM (inactive).
In the case of `Cc1cc(C)c(OCCCNCc2ccccc2)c(Br)c1`, the IC50 [6] is reported as > 96.6 µM (inactive).
With `CN1C(=O)c2ccccc2N(C)C1c1ccc2c(c1)OCO2` (stereo unspecified) the EC50 (Kallikrein-7) was > 69.5 µM (inactive).
In the case of `O=C(CCCN1C(=O)/C(=C/c2cccs2)SC1=S)NNC(=O)c1ccccc1O`, the IC50 (Albumin) is reported as > 94.1 µM (inactive).
For `CN(C)CCn1c2ccccc2c2nc3ccc([N+](=O)[O-])cc3cc21`, the AC50 [7] was 55.7 µM (active) and the AC50 [8] was 2.35 µM (active).
In the case of `Cc1ccc(C(=O)CNc2ccc(Br)cc2)cc1`, the EC50 (Beta-galactosidase [9]) is reported as > 40 µM (inactive), the IC50 [10] is reported as 7.47 µM (active) and the IC50 (Beta-galactosidase [5]) is reported as > 80 µM (inactive).
For `CCN1CCN(c2ccc(S(=O)(=O)N3CCCCC3)cc2NC(=O)/C=C/c2ccc([N+](=O)[O-])cc2)CC1`, the AC50 [11] was 7.51 µM (active), the EC50 [12] was > 91.2 µM (inactive) and the EC50 [13] was > 91.2 µM (inactive).
With `NS(=O)(=O)c1ccc(S(=O)(=O)N(CCc2ccccc2)Cc2ccccn2)cc1` the AC50 [7] was < 0.0235 µM (active).
With `Clc1ccccc1NN=Cc1ccccn1` the EC50 (cells [14]) was > 67.6 µM (inactive) and the EC50 [15] was > 67.6 µM (inactive).
For `C[C@@H]1CCCCO[C@H](CN(C)C(=O)Nc2ccc(C(F)(F)F)cc2)[C@@H](C)CN([C@@H](C)CO)C(=O)c2cc(NS(=O)(=O)c3ccc(Cl)cc3)ccc2O1`, the AC50 [16] was 36.2 µM (active), the AC50 [17] was 46.1 µM (active) and the AC50 [18] was 29.1 µM (active). For the same molecule, the AC50 (Paired box protein Pax-8) was 3.44 µM (active).
With `COc1ccc(-c2ccc3c(c2)[C@H]2[C@H](CCN2S(=O)(=O)c2ccc(OC)cc2)[C@@H](CO)N3C)cc1` the AC50 [16] was 34.7 µM (active), the AC50 [18] was 15.6 µM (active) and the AC50 [19] was 38.1 µM (active). For the same molecule, the AC50 (Paired box protein Pax-8) was 9.39 µM (active).
With `Cc1ccc(N/N=C(\C#N)C(=N)N2CCCCC2)cc1` the EC50 (cells [14]) was > 67.6 µM (inactive), the IC50 (HEK293) was > 0.278 µM (active) and the IC50 [20] was > 67.5 µM (inactive). The EC50 [15] was > 67.6 µM (inactive) and the AC50 [21] was 0.228 µM (active).
In the case of `C=CCNC1=C(N2CCCCC2)C(=O)c2ccccc2C1=O`, the AC50 [22] is reported as 29.1 µM (active) and the AC50 [23] is reported as 5.82 µM (active).
For `COc1cccc2cccc(/C=N/n3cnnc3)c12`, the EC50 (Kallikrein-7) was > 69.5 µM (inactive).
In the case of `COc1cccc(-c2cc(C(=O)NC3=C(Cl)C(=O)c4ccccc4C3=O)ccc2OC)c1`, the AC50 [22] is reported as > 70 µM (inactive) and the AC50 [23] is reported as > 70 µM (inactive).
